Assay results as given in paper PMC5209718, “Piscidin-1-analogs with double L- and D-lysine residues exhibited different conformations in lipopolysaccharide but comparable anti-endotoxin activities” (Scientific Reports, 2017).
In brackets after ≈: the same amount, converted by molar mass. Read-outs that look alike come from different tables or passages of the source. Residues, ends and D or L forms follow the SMILES beside them.

Experiments:
[1] = no LPS, BALB/c mice, data not shown
[2] = test system: E. coli 0111:B4 LPS-administered mice; assay: In vivo anti-LPS activity: survival of LPS-administered mice (septic shock); details: BALB/c mice, monitored 7 days; for survival of LPS-administered mice: n = 5
Description: Septic shock in BALB/c mice was induced by intraperitoneal (i.p.) injection of E. coli LPS (12 mg/kg) followed by i.p. injection of T15,21K-piscidin-1 (0.5 mg/Kg) or T15,21dK-piscidin-1 (1 mg/Kg) or polymyxin B (1 mg/Kg) ~5 min later. Mice treated with only saline was taken as control. Survival of the animals (n = 5) was monitored for 7 days (***p < 0.0001, log-rank test).
Polymyxin B was taken as the positive control and the experiments were performed as reported earlier[14][30][31].
In vivo studies, treat ment of Mice
Female BALB/c mice (National laboratory animal centre, central drug research institute,
Lucknow) we re given a s tandard laborato r y diet an d water ad libitum and housed under controlled
environmental conditions. The mice wer e approx imatel y 25 g each at the st art of experiments. All
the mice were divided into experimental groups for the administration of LPS and peptides. Mice
were treated with 12 m g/ kg E. coli 0111: B4 LPS i n presen ce and in absen ce of peptide in different
experimental groups. The mice treated with saline onl y, in absence of LP S were considered as
experimental controls. To study the efficacy of a peptide in neutralizing LPS-induced pro-
inflammatory responses in mice ~5 min post LPS treatment, the respective peptide was
administered i.p. at a site other than the one, used for LPS injection. […] Survival of mice was
monitored for 7 da ys. Survival of mice was also mo nitored following th e treatment of onl y p eptides
for investigating their toxic effects.

[3] = test system: Staphylococcus aureus (ATCC BAA-44 MRSA); assay: microbe, parasite or virus in culture; details: ATCC BAA-44
Text: (§1) Piscidin-1 and its analogs were examined for bacterial growth-inhibiting activity in liquid cultures against Gram-positive bacteria including MRSA strains and Gram-negative bacteria (Table 2). […] The therapeutic index is a parameter that signify the specificity or selectivity of antimicrobial agents towards microorganisms over mammalian cells.
(§2) Antibacterial assays with all the peptides were done in 96-well microtiter plates against different Gram-positive, Gram-negative and resistant bacteria as described earlier.

[4] = test system: Staphylococcus aureus (ATCC 700699 MRSA); assay: microbe, parasite or virus in culture; details: ATCC 700699
Text: as §1, §2

[5] = test system: Staphylococcus aureus (ATCC 1708 MRSA); assay: microbe, parasite or virus in culture; details: ATCC 1708
Text: as §1, §2

[6] = test system: Staphylococcus aureus (ATCC 700698 MRSA); assay: microbe, parasite or virus in culture; details: ATCC 700698
Text: as §1, §2

[7] = test system: Staphylococcus aureus (ATCC 33592 Gentamycin Resistant); assay: microbe, parasite or virus in culture; details: ATCC 33592
Text: as §1, §2

[8] = test system: E. coli (ATCC 25922); assay: Antibacterial activity (MIC), liquid culture in 96-well microtiter plates; type: cell-based; details: means of three independent experiments each in duplicate ± SD, read-out: Minimum inhibitory conc. (MIC) against bacteria 11
Text: as §1, §2

[9] = test system: human red blood cells (hRBCs); type: cell-based
Text: Cytotoxic activity of piscidin-1 and its designed analogs was examined by assaying the lysis of human red blood cells (hRBCs) and the viability of murine 3T3 cells in presence of these peptides. […] Introduction of D-lysine (dK)residues instead of threonine residues at 15th & 21st positions further reduced the haemolytic activity of piscidin-1 (Fig. 1A). Overall, haemolytic activity of these peptides against hRBCs followed the order piscidin-1 > T15K-piscidin-1 > T15dK-piscidin-1 > T15,21K-piscidin-1 > T15,21dK-piscidin-1. Viability of 3T3 cells as determined by MTT assay in the presence of these peptides followed the same trend as their haemolytic activity (Fig. 1B).
Haemolytic activity of the peptides against human red blood cells in PBS was performed by assaying the ability of the peptides to lyse the hRBCs[24][48]. For this purpose, fresh human red blood cells (hRBCs) were collected in the presence of an anti-coagulant from a healthy volunteer. After washing the blood three times with PBS haemolytic activity of the peptides were determined as reported previously. Methodology of our experiment with human blood was in accordance with relevant guidelines and regulations of CSIR-central drug research institute ethics committee and was approved by it with approval No. CDRI/IEC/2014/A5. Further, informed consent was obtained from the healthy volunteer before collection of blood as per the guideline of our Institutional ethics committee.

[10] = test system: Staphylococcus aureus (ATCC 29213); assay: microbe, parasite or virus in culture; type: cell-based; details: ATCC 29213
Text: as §1, §2

[11] = test system: P. aeruginosa (ATCC BAA-427); assay: microbe, parasite or virus in culture; type: cell-based; details: ATCC BAA-427
Text: as §1, §2

[12] = test system: B. subtilis (ATCC 6633); assay: microbe, parasite or virus in culture; type: cell-based; details: ATCC 6633
Text: as §1, §2

[13] = test system: K. pneumoniae (ATCC 27736); assay: microbe, parasite or virus in culture; type: cell-based; details: ATCC 27736
Text: as §1, §2

[14] = test system: Staphylococcus aureus (ATCC 25923); assay: microbe, parasite or virus in culture; type: cell-based; details: ATCC 25923
Text: as §1, §2

## CC[C@H](C)[C@H](NC(=O)CNC(=O)[C@H](CCCNC(=N)N)NC(=O)[C@H](Cc1ccccc1)NC(=O)[C@@H](NC(=O)[C@H](Cc1c[nH]cn1)NC(=O)[C@H](Cc1c[nH]cn1)NC(=O)[C@H](Cc1ccccc1)NC(=O)[C@@H](N)Cc1ccccc1)[C@@H](C)CC)C(=O)N[C@H](C(=O)N[C@@H](Cc1c[nH]cn1)C(=O)N[C@H](C(=O)NCC(=O)N[C@@H](CCCCN)C(=O)N[C@H](CCCCN)C(=O)N[C@H](C(=O)N[C@@H](Cc1c[nH]cn1)C(=O)N[C@@H](CCCNC(=N)N)C(=O)N[C@@H](CC(C)C)C(=O)N[C@H](C(=O)N[C@H](CCCCN)C(=O)NCC(N)=O)C(C)C)[C@@H](C)CC)C(C)C)C(C)C [T15,21dK Piscidin-1] (HELM PEPTIDE1{F.F.H.H.I.F.R.G.I.V.H.V.G.K.[dK].I.H.R.L.V.[dK].G.[am]}$$$$V2.0)
[1]; 1.0 mg/kg
  survival of control mice treated only with peptide: 100%
[2]; peptide 1.0 mg/Kg i.p. ~5 min after LPS 12.0 mg/Kg i.p.
  survival of LPS-administered mice: 100%
[2]; single dose 1.0 mg/kg i.p. after LPS 12 mg/kg
  mortality rate of LPS-administered mice: zero
[3]
  Minimum inhibitory conc. (MIC) against bacteria 5: 5.0 ± 0.7 µM (≈ 13.1 µg/mL)
[4]
  Minimum inhibitory conc. (MIC) against bacteria 3: 10.0 ± 1.4 µM (≈ 26.3 µg/mL)
[5]
  Minimum inhibitory conc. (MIC) against bacteria 7: 5.0 ± 0.7 µM (≈ 13.1 µg/mL)
[6]
  Minimum inhibitory conc. (MIC) against bacteria 6: 10.0 ± 1.4 µM (≈ 26.3 µg/mL)
[7]
  Minimum inhibitory conc. (MIC) against bacteria 4: 5.0 ± 0.7 µM (≈ 13.1 µg/mL)
[8]
  MIC: 5.0 µM (≈ 13.1 µg/mL)
[9]
  HC50, peptide concentration leading to 50% lysis of human RBC: 500 µM
[10]
  Minimum inhibitory conc. (MIC) against bacteria 2: 5.0 ± 0.7 µM (≈ 13.1 µg/mL)
[11]
  Minimum inhibitory conc. (MIC) against bacteria 8: 9.0 ± 1.3 µM (≈ 23.6 µg/mL)
[12]
  Minimum inhibitory conc. (MIC) against bacteria 9: 9.0 ± 1.3 µM (≈ 23.6 µg/mL)
[13]
  Minimum inhibitory conc. (MIC) against bacteria 10: 5.0 ± 0.7 µM (≈ 13.1 µg/mL)
[14]
  Minimum inhibitory conc. (MIC) against bacteria 1: 5.0 ± 0.7 µM (≈ 13.1 µg/mL)

## H-FFHHIFRGIVHVGKKIHRLVKG-NH2 [T15,21K Piscidin-1]
[1]; 0.5 mg/kg
  survival of control mice treated only with peptide: 100%
[2]; peptide 0.5 mg/Kg i.p. ~5 min after LPS 12.0 mg/Kg i.p.
  survival of LPS-administered mice: 100%
[2]; single dose 0.5 mg/kg i.p. after LPS 12 mg/kg
  mortality rate of LPS-administered mice: zero
[3]
  Minimum inhibitory conc. (MIC) against bacteria 5: 1.25 ± 0.3 µM
[4]
  Minimum inhibitory conc. (MIC) against bacteria 3: 2.5 ± 0.4 µM
[5]
  Minimum inhibitory conc. (MIC) against bacteria 7: 1.25 ± 0.3 µM
[6]
  Minimum inhibitory conc. (MIC) against bacteria 6: 2.5 ± 0.4 µM
[7]
  Minimum inhibitory conc. (MIC) against bacteria 4: 2.5 ± 0.4 µM
[8]
  MIC: 2.0 µM
[9]
  HC50, peptide concentration leading to 50% lysis of human RBC: 200 µM
[10]
  Minimum inhibitory conc. (MIC) against bacteria 2: 2.5 ± 0.4 µM
[11]
  Minimum inhibitory conc. (MIC) against bacteria 8: 5.0 ± 0.7 µM
[12]
  Minimum inhibitory conc. (MIC) against bacteria 9: 5.0 ± 0.7 µM
[13]
  Minimum inhibitory conc. (MIC) against bacteria 10: 3.0 ± 0.4 µM
[14]
  Minimum inhibitory conc. (MIC) against bacteria 1: 1.25 ± 0.3 µM
